From the NIST ThermoML archive (doi:10.1016/j.jct.2016.01.019)

Assay: refractive index (other wavelength) (dimensionless); xn = mol fraction of the nth substance listed
Details: 94.64 kPa, Liquid, Standard Abbe refractometry, x1 = 1

CC(O)CO (stereo not drawn) [1,2-propanediol] + OCCCO
refractive index
Details | Wavelength=404.7 nm | Wavelength=435.8 nm | Wavelength=486.1 nm | Wavelength=546.1 nm | Wavelength=587.6 nm | Wavelength=632.8 nm | Wavelength=644 nm | Wavelength=706.5 nm
293.15 K | 1.445 | 1.44204 | 1.43722 | 1.43406 | 1.43227 | 1.43023 | 1.43008 | 1.42866
298.15 K | 1.4429 | 1.43967 | 1.43566 | 1.43245 | 1.4305 | 1.429 | 1.4289 | 1.42701
303.15 K | 1.44135 | 1.43785 | 1.43417 | 1.43096 | 1.42927 | 1.42774 | 1.42734 | 1.42571
308.15 K | 1.43955 | 1.43622 | 1.43239 | 1.42919 | 1.42752 | 1.426 | 1.42565 | 1.42397
313.15 K | 1.43771 | 1.43437 | 1.43055 | 1.42738 | 1.42572 | 1.4242 | 1.42386 | 1.42219
318.15 K | 1.43584 | 1.43252 | 1.42875 | 1.42557 | 1.42392 | 1.42243 | 1.42208 | 1.42043
